# Entries after “also recorded” stand apart in the source; their conditions may differ.
# Columns and labels:
# [1] = system: NCI panel of 60 human cancer cell lines; settings: NCI/DTP screen, 60 human cancer cell line panel; read-out: median cytotoxic concentration (LC50); cited from earlier work
# ErbB2 promoter [2] = assay: Transiently transfected (episomal) RO6pGL ErbB2 promoter-reporter in MCF-7 cells; assay type: cell-based, human; settings: transient transfection of RO6pGL into MCF-7 cells; 0.4 μM TSA, 24 hour
# Procedure: FIGS. 11A and 11B show trichostatin A (TSA) responsiveness and DNase I hypersensitivity comparisons between the genomically integrated vs. episomally introduced ErbB2 promoter-reporter construct, RO6pGL, in MCF-7 cells. FIG. 11A: Luciferase activity (relative luminometer units) of the MCF/RO6pGL-9 subline compared to parental MCF-7 cells transiently transfected with the same ErbB2 promoter-reporter plasmid (RO6pGL) and after 24 hour treatment with 0.4 μM TSA, normalized against their respective non-treatment (vehicle only) control conditions. FIG. 11B: DNase 1 hypersensitivity analysis (described in Methods) of nuclei from MCF/RO6pGL-9 vs. MCF-7 cells transiently transfected with RO6pGL, following similar culture treatments with TSA.
# In an episomal context and following transient transfection of the RO6pGL construct into MCF-7 cells, TSA produced diametrically opposite (>10-fold stimulatory) effects on this same ErbB2 promoter-driven reporter (FIG. 11). Southern blot comparisons of DNase I treated MCF/R06pGL-9 cell nuclei and those from transfected MCF-7 cells bearing the episomally introduced R06pGL plasmid confirmed the lack of a discrete DNase-I hypersensitivity site in the episomal R06pGL and the presence of such a site in the genomically integrated R06pGL, similar in location and intensity to that found within the endogenous ErbB2 promoter (FIG. 11). […]
# ErbB2 promoter [3] = assay: Genomically integrated ErbB2 promoter-luciferase reporter screen in MCF/R06pGL-9 cells; assay type: cell-based, human; settings: 24 h treatment
# Procedure: Reporter activity was assayed as follows: From T-150 or T-75 culture flasks, about […] cells/well were plated into a 96 well plate format for high-throughput screening. 24 hours post plating a test agent e.g. a drug from a combinatorial library, was added to the wells at various concentrations. Certain wells were used as controls (e.g. PBS or DMSO vehicle only). Replicate wells ([…] per drug concentration) were run. 24 hours after addition of the test agent the cells were lysed, a luciferase reagent was added and activity in each well was read using a high-throughput screening plate reader (labsystems Fluoroskan). Parallel plates were run for cell viability using an MTT assay (Sigma).
# A luciferase reporter plasmid (designated RO6pGL-luc) was constructed by inserting the ˜500 bp SmaI-SmaI fragment of the human ErbB2 proximal promoter (12) into the pGL3Basic plasmid driving a luciferase reporter gene, as has been described (10). R06pGL-luc and a plasmid expressing neomycin phosphotransferase were co-transfected into the MCF-7 cells (ATCC) using Effectene (Qiagen). Cells were selected for stable expression of luciferase and neomycin (G418)-resistance. […] The reaction was quantified by absorbance at 570 nm measured with a microplate reader (Molecular Devices) and the mean (±SD) optical density recorded after normalization by the vehicle treated controls. […]
# MCF/R06pGL-9 cells = assay: MTT cell viability assay on MCF/R06pGL-9 cells; assay type: cell-based, human
# Source text: A luciferase reporter plasmid (designated RO6pGL-luc) was constructed by inserting the ˜500 bp SmaI-SmaI fragment of the human ErbB2 proximal promoter (12) into the pGL3Basic plasmid driving a luciferase reporter gene, as has been described (10). R06pGL-luc and a plasmid expressing neomycin phosphotransferase were co-transfected into the MCF-7 cells (ATCC) using Effectene (Qiagen). Cells were selected for stable expression of luciferase and neomycin (G418)-resistance. Single cell clones including MCF/R06pGL-9 were isolated and maintained in DME H-16 medium supplemented with 10% fetal bovine serum, 10 μg/ml insulin, 100 μg/ml penicillin/streptomycin, and 500 μg/ml G418. MTT cell viability and luciferase expression assays on the MCF/RO6pGL-9 sublime were performed after plating the subline into 96-well culture dishes at a density of 10^4 cells/well in 100 μL medium. After 24 hour cell plating, TSA from stock DMSO solution was diluted into 100 μL medium and then added into eight replicate wells at the indicated concentrations. […] The reaction was quantified by absorbance at 570 nm measured with a microplate reader (Molecular Devices) and the mean (±SD) optical density recorded after normalization by the vehicle treated controls. […]
compound,measurement,setting,value
"CC(/C=C/C(=O)NO)=C\[C@@H](C)C(=O)c1ccc(N(C)C)cc1 [TSA, trichostatin A]",CC50,[1],> 10 µM
same,effect on episomal ErbB2 promoter-driven reporter (stimulation),ErbB2 promoter [2],> 10 fold
same,ErbB2 promoter-reporter (luciferase) activity,ErbB2 promoter [3],significantly represses; also recorded: significant reduction of luciferase activity
same,cell viability (MTT assay),"MCF/R06pGL-9 cells; 24 hours exposure, TSA concentrations up to 50 μM",little impact on cell viability
same,cell viability (MTT assay),"MCF/R06pGL-9 cells; dose <1 μM, within 24 h",does not impair cell viability
